According to patent US12492194B2, “HPK1 inhibitors” (Janssen Pharmaceutica NV, priority 2019, dated 2025):

Assays:
Hpk1 = Hpk1 (Homo sapiens, UniProt Q92918); assay: SLP76 phosphorylation assay (SLP76 pS376 in lysates of HEK293 cells engineered to express Hpk1 and SLP76); assay type: cell-based; details: HEK293 cells expressing Hpk1 and SLP76, 4 hours incubation; read-out: pSLP76 (HEK293) (pIC50) (converted)
Method: SLP76 Phosphorylation Assay
Hpk1 inhibition in cells was determined by detection of SLP76 phosphorylation at S376 in lysates from HEK293 cells engineered to express Hpk1 and SLP76. Serial dilutions of test compounds were prepared in cell culture medium and 20 μl was transferred into each well of a 96-well plate containing HEK293 cells in 180 μl of culture medium. After incubation for 4 hours at 37° C./5% CO2, the culture medium was removed, plates were put on ice and cells washed with cold Minimal Essential Medium before lysing in 90 μl of cold Mammalian Protein Extraction Reagent (Thermo Scientific, 78501) for 30 minutes on ice. The cell lysates were transferred to another 96-well plate, centrifuged 10 minutes at 3000 rcf (4° C.) and 30 μl transferred to a 96-well High-bind plate (MSD, L15XB-3). After coating overnight at 4° C., the cell lysate was removed, wells were washed with base buffer (TBS, 0.2% Tween-20), and blocking solution (base buffer containing 3% MSD blocker A) was added to each well for 1 hour at room temperature. The blocking solution was removed, the wells were washed with base buffer, and detection antibody (SLP76 pS376) was added in 25 μl base buffer containing 1% MSD blocker A to each well. After a 2 h incubation at room temperature, the detection antibody was removed, wells were washed four times with base buffer, 25 μl SULFO-TAG labeled goat anti-rabbit secondary antibody (MSD, R32AB-1) in base buffer containing 1% MSD blocker A was added to each well and left for 1 hour at room temperature. Wells were washed 4 times with base buffer, 150 μl Read Buffer T was added to each well, and the plates were read in a Mesoscale plate reader (MSD). IC50 values were determined by curve-fitting the electrochemiluminescent signals obtained from the lysates of HEK293 cells expressing Hpk1 and SLP76 treated with test compounds at various concentrations minus the signal obtained from HEK293 cells expressing SLP76 only.

full-length human Hpk1 = biological target: T1, full-length human Hpk1 (Homo sapiens, UniProt Q92918); assay: HPK1 kinase assay (ADP Glo Kinase Assay); assay type: biochemical; details: full-length human GST-Hpk1, ADP Glo, 75 μM ATP; read-out: Hpk1 biochemical (pIC50) (converted)
T1 construct: A recombinant fusion protein consisting of full-length human Hpk1; GST (N)
Method: Pharmacological Part HPK1 Kinase Assay
A recombinant fusion protein consisting of full-length human Hpk1 with an N-terminal Glutatione S-transferase (GST) tag was produced in a baculovirus/insect cell expression system. GST-Hpk1 protein was purified from cell lysates by glutathione sepharose affinity chromatography. Kinase inhibition was determined using the ADP Glo™ Kinase Assay kit (Promega, V9101). Test compounds were prepared by serial dilution in dimethyl sulfoxide (DMSO) and 0.1 μl of each dilution was spotted onto a 384-well white Proxiplate (Perkin Elmer, 6008289). 8 μl of kinase assay buffer (40 mM Tris pH 7.5, 2 mM dithiothreitol (DTT), 0.05% Bovine Serum Albumin, 5 mM MgCl2) containing Hpk1 protein was transferred to each well and incubated for 30-45 minutes at room temperature. The enzymatic reaction was started by adding 2 μl of kinase assay buffer containing 75 μM ATP. After 120 minutes, the reaction was stopped by adding 3 μl of ADP Glo™ reagent (Promega, V9101) and incubating 45 minutes at room temperature.

T1 sequence (Q92918 whole entry, the tested form may be a part): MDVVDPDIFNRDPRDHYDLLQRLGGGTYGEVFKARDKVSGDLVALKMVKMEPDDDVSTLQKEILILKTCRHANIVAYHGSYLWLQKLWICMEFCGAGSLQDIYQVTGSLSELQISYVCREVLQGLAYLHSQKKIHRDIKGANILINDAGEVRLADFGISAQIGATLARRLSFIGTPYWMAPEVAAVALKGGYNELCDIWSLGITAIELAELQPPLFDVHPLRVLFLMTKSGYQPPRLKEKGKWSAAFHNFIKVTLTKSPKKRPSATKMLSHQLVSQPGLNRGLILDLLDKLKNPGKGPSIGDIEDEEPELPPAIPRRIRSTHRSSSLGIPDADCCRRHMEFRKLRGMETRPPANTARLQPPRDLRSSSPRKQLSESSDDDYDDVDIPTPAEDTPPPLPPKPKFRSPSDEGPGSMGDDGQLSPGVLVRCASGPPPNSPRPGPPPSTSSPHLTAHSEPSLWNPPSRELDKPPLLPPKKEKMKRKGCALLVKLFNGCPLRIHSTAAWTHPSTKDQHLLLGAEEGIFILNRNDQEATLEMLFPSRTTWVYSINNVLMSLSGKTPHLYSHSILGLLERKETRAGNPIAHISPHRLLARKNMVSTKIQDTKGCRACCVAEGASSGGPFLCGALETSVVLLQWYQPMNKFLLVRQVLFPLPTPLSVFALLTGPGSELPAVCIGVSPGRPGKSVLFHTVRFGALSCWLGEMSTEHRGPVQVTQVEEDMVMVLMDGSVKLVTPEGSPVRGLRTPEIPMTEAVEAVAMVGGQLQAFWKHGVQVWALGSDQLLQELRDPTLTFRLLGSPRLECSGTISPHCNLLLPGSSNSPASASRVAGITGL
Hpk1, sequence (Q92918 whole entry): as the sequence (Q92918 whole entry, the tested form may be a part) above

Row | SMILES | IC50 (Hpk1) [nM] | IC50 (full-length human Hpk1) [nM]
1 | C[C@H]1CCN[C@@H]1c1cc(-c2cnc(N)c(-c3ccncc3)c2)ccc1C1CCOCC1 (racemic) [Co. 9] | 2140 | 42.7
2 | C[C@@H]1CCN[C@@H]1c1cc(-c2cnc(N)c(-c3ccncc3)c2)ccc1C1CCOCC1 (racemic) [Co. 10] | 282 | 6.61
3 | Nc1ncc(-c2ccc(C3CCOCC3)c([C@@H]3CC4(CC4)CN3)c2)cc1-c1ccnc(F)c1 (single isomer, unassigned) [Co. 5a] | 776 | 10.2
4 | Nc1ncc(-c2ccc(C3CCOCC3)c([C@H]3CC(F)(F)CN3)c2)cc1-c1ccnc(F)c1 (single isomer, unassigned) [Co. 58] | > 10000 | 8710
5 | Nc1ncc(-c2ccc(C3CCOCC3)c([C@@H]3CC(F)(F)CN3)c2)cc1-c1ccnc(F)c1 (single isomer, unassigned) [Co. 59] | 5620 | 77.6
6 | Nc1ncc(-c2ccc([C@H]3CCOC3)c([C@@H]3CCCN3)c2)cc1-c1ccnc(F)c1 (single isomer, unassigned) [Co. 101] | 692 | 3.72
7 | Nc1ncc(-c2ccc(C3CCOCC3)c([C@H]3CC4(CC4)CN3)c2)cc1-c1ccnc(F)c1 (single isomer, unassigned) [Compound 5b] | – | 912
8 | Nc1ncc(-c2ccc(C3CCOCC3)c([C@@H]3CCCN3)c2)cc1-c1ccnc(F)c1 [Co. 1] | 380 | 7.59
9 | Nc1ncc(-c2ccc(N3CCOCC3)c([C@@H]3CCCN3)c2)cc1-c1ccnc(F)c1 [Co. 2] | 871 | 41.7
10 | Nc1ncc(-c2ccc(C3CCOCC3)c([C@@H]3CCCN3)c2)cc1-c1cncnc1 [Co. 3] | 5620 | 53.7
11 | Nc1ncc(-c2ccc(C3CCOCC3)c([C@@H]3CCCN3)c2)cc1-c1cccnc1 [Co. 4] | 3720 | 42.7
12 | Nc1ncc(-c2ccc(N3CCOCC3)c(C3CCCN3)n2)cc1-c1ccncc1 (stereo not shown) [Co. 11] | 5010 | 35.5
13 | Nc1ncc(-c2cnc(N3CCOCC3)c(C3CCCN3)c2)cc1-c1ccncc1 (stereo not shown) [Co. 12] | 7410 | 112
14 | Nc1ncc(-c2ccc(C3CCOCC3)c(-c3cnc[nH]3)c2)cc1-c1ccncc1 [Co. 13] | 8910 | 186
15 | Nc1ncc(-c2ccc(N3CCOCC3)c(-c3nnc[nH]3)c2)cc1-c1ccncc1 [Co. 14] | > 10000 | 832
16 | Nc1ncc(-c2ccc(C3CCOCC3)c(-c3cnn[nH]3)c2)cc1-c1ccncc1 [Co. 15] | > 10000 | 575
17 | Nc1ncc(-c2ccc(C3CCOCC3)c([C@@H]3CCCN3)c2)cc1-c1ccnc(Cl)c1 [Co. 17] | 1580 | 15.8
18 | Nc1ncc(-c2ccc(C3CCOCC3)c([C@@H]3CCCN3)c2)cc1-c1cnn2c1CCCC2 [Co. 18] | 1550 | 17.8

Row | SMILES | IC50 (Hpk1) [nM] | IC50 (full-length human Hpk1) [nM]
19 | CS(=O)(=O)n1cc(-c2cc(-c3ccc(C4CCOCC4)c([C@@H]4CCCN4)c3)cnc2N)cn1 [Co. 19] | 977 | 4.27
20 | Nc1ncc(-c2ccc(C3CCOCC3)c([C@@H]3CCCN3)c2)cc1-c1nccs1 [Co. 20] | 170 | 3.16
21 | Nc1ncc(-c2ccc(C3CCOCC3)c([C@@H]3CCCN3)c2)cc1-c1cnn(CCO)c1 [Co. 21] | 6920 | 18.6
22 | CC(C)n1cc(-c2cc(-c3ccc(C4CCOCC4)c([C@@H]4CCCN4)c3)cnc2N)cn1 [Co. 22] | 339 | 2.75
23 | Nc1ncc(-c2ccc(C3CCOCC3)c([C@@H]3CCCN3)c2)cc1-c1cn[nH]c1 [Co. 23] | 302 | 1.02
24 | COc1cnccc1-c1cc(-c2ccc(C3CCOCC3)c([C@@H]3CCCN3)c2)cnc1N [Co. 24] | 891 | 13.2
25 | Nc1ncc(-c2ccc(C3CCOCC3)c([C@@H]3CCCN3)c2)cc1-c1ccncc1 [Co. 25] | 427 | 9.77
26 | Nc1ncc(-c2ccc(C3CCOCC3)c([C@@H]3CCCN3)c2)cc1-c1ccncn1 [Co. 26] | 245 | 2.04
27 | Nc1ncc(-c2ccc(C3CCOCC3)c([C@@H]3CCCN3)c2)cc1-c1ccnc(F)c1F [Co. 27] | 240 | 5.75
28 | Nc1ncc(-c2ccc(C3CCOCC3)c([C@@H]3CCCN3)c2)cc1-c1ccncc1F [Co. 28] | 316 | 10.2
29 | CC(C)(C#N)c1cc(-c2cc(-c3ccc(C4CCOCC4)c([C@@H]4CCCN4)c3)cnc2N)ccn1 [Co. 29] | 6030 | 38
30 | Nc1ncc(-c2ccc(C3CCOCC3)c([C@@H]3CCCN3)c2)cc1-c1ccncc1Cl [Co. 30] | 490 | 28.2
31 | Nc1ncc(-c2ccc(C3CCOCC3)c([C@@H]3CCCN3)c2)cc1-c1cc(F)ncc1F [Co. 31] | 1050 | 20.4
32 | Nc1ncc(-c2ccc(C3CCOCC3)c([C@@H]3CCCN3)c2)cc1-c1cc(F)ncc1Cl [Co. 32] | 1860 | 28.2
33 | Nc1ncc(-c2ccc(C3CCOCC3)c([C@@H]3CCCN3)c2)cc1-c1ccnnc1 [Co. 33] | 2290 | 14.5
34 | Nc1ncc(-c2ccc(C3CCOCC3)c([C@@H]3CCCN3)c2)cc1-c1ccnc(C(F)F)c1 [Co. 34] | 1820 | 17.4
35 | Cc1cnccc1-c1cc(-c2ccc(C3CCOCC3)c(CN(C)C)c2)cnc1N [Co. 69] | – | 316
36 | Nc1ncc(-c2ccc(C3CCOCC3)c(CN3CCC(F)(F)C3)c2)cc1-c1ccncc1 [Co. 107] | – | 832

Continued, values first:

Row | IC50 (Hpk1) [nM] | IC50 (full-length human Hpk1) [nM] | SMILES
37 | 347 | 6.31 | Nc1ncc(-c2ccc(C3CCOCC3)c([C@@H]3CC4(CC4)CN3)c2)cc1-c1ccncc1 (single isomer, unassigned) [Co. 8a]
38 | 6920 | 135 | Nc1ncc(-c2ccc(C3CCOCC3)c([C@H]3CC4(CC4)CN3)c2)cc1-c1ccncc1 (single isomer, unassigned) [Co. 8b]
39 | > 10000 | 200 | Nc1ncc(-c2ccc(C3CCOCC3)c([C@@H]3C[S@+]([O-])CCN3)c2)cc1-c1ccnc(F)c1 (single isomer, unassigned) [Co. 15b]
40 | > 10000 | 631 | Nc1ncc(-c2ccc(C3CCOCC3)c([C@@H]3C[S@@+]([O-])CCN3)c2)cc1-c1ccnc(F)c1 (single isomer, unassigned) [Co. 15c]
41 | > 10000 | 6920 | Nc1ncc(-c2ccc(C3CCOCC3)c([C@H]3C[S@+]([O-])CCN3)c2)cc1-c1ccnc(F)c1 (single isomer, unassigned) [Co. 15d]
42 | 1350 | 44.7 | C[C@H]1COC[C@@H](c2cc(-c3cnc(N)c(-c4ccncc4)c3)ccc2C2CCOCC2)N1 (single isomer, unassigned) [Co. 83a]
43 | – | 5750 | C[C@@H]1COC[C@H](c2cc(-c3cnc(N)c(-c4ccncc4)c3)ccc2C2CCOCC2)N1 (single isomer, unassigned) [Co. 83b]
44 | 4570 | 162 | Nc1ncc(-c2ccc(C3CCOCC3)c([C@@H]3COCCCN3)c2)cc1-c1ccncc1 (single isomer, unassigned) [Co. 93a]
45 | 1230 | 18.6 | Nc1ncc(-c2ccc(C3CCOCC3)c([C@H]3COCCCN3)c2)cc1-c1ccncc1 (single isomer, unassigned) [Co. 93b]
46 | 1950 | 7.76 | Nc1ncc(-c2ccc(C3CCOCC3)c([C@@H]3CSCCN3)c2)cc1-c1ccnc(F)c1 (single isomer, unassigned) [Co. 103a]
47 | > 10000 | 603 | Nc1ncc(-c2ccc(C3CCOCC3)c([C@H]3CSCCN3)c2)cc1-c1ccnc(F)c1 (single isomer, unassigned) [Co. 103b]
48 | > 10000 | 9330 | Nc1ncc(-c2ccc(C3CCOCC3)c([C@H]3C[S@@+]([O-])CCN3)c2)cc1-c1ccnc(F)c1 (single isomer, unassigned) [Compound 15a]
49 | > 10000 | 955 | Nc1ncc(-c2ccc(C3CCOCC3)c([C@H]3CCCN3)c2)cc1-c1ccncc1 [Co. 25b]
